# Data as given in ChEMBL document CHEMBL1134197, “A series of quinoline analogues as potent inhibitors of C. albicans prolyl tRNA synthetase” (Bioorg Med Chem Lett, 2001).
# Tests used:
# [1] = target: Bifunctional glutamate/proline--tRNA ligase (Homo sapiens, UniProt P07814); assay: Aminoacylation activity against human prolyl-tRNA synthetase
# [2] = target: T1, Proline--tRNA ligase, cytoplasmic (Candida albicans, UniProt P78600); assay: Aminoacylation activity against Candida albicans prolyl-tRNA synthetase
# T1 sequence (P78600 whole entry): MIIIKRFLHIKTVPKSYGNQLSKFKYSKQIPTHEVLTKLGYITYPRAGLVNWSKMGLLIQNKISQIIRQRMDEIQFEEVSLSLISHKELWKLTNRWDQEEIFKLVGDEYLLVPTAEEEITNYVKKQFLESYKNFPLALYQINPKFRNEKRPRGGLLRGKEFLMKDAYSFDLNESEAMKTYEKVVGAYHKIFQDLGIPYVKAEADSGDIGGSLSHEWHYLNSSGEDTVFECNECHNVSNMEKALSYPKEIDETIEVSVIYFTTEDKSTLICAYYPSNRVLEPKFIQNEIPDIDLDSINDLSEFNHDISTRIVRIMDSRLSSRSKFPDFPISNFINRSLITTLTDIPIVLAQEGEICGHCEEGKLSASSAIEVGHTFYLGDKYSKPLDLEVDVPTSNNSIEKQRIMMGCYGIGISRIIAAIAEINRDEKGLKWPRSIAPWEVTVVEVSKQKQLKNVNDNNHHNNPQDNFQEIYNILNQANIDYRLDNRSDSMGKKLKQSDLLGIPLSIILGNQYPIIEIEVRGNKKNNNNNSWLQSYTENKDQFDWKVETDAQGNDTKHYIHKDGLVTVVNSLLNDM
# [3] = Minimum inhibitory concentration (MIC) against Candida albicans (has cellular activity); format: functional
# Candida albicans = assay: Compound was evaluated for the minimum inhibitory concentration (MIC) against Candida albicans (no cell activity); format: functional
# [4] = Competitive inhibition against Candida albicans prolyl-tRNA synthetase (Ca. ProRS) with respect to ATP
# [5] = Non-competitive inhibition against Candida albicans prolyl-tRNA synthetase (Ca. ProRS) with respect to proline
# Bifunctional glutamate/proline--tRNA ligase, sequence (P07814 whole entry): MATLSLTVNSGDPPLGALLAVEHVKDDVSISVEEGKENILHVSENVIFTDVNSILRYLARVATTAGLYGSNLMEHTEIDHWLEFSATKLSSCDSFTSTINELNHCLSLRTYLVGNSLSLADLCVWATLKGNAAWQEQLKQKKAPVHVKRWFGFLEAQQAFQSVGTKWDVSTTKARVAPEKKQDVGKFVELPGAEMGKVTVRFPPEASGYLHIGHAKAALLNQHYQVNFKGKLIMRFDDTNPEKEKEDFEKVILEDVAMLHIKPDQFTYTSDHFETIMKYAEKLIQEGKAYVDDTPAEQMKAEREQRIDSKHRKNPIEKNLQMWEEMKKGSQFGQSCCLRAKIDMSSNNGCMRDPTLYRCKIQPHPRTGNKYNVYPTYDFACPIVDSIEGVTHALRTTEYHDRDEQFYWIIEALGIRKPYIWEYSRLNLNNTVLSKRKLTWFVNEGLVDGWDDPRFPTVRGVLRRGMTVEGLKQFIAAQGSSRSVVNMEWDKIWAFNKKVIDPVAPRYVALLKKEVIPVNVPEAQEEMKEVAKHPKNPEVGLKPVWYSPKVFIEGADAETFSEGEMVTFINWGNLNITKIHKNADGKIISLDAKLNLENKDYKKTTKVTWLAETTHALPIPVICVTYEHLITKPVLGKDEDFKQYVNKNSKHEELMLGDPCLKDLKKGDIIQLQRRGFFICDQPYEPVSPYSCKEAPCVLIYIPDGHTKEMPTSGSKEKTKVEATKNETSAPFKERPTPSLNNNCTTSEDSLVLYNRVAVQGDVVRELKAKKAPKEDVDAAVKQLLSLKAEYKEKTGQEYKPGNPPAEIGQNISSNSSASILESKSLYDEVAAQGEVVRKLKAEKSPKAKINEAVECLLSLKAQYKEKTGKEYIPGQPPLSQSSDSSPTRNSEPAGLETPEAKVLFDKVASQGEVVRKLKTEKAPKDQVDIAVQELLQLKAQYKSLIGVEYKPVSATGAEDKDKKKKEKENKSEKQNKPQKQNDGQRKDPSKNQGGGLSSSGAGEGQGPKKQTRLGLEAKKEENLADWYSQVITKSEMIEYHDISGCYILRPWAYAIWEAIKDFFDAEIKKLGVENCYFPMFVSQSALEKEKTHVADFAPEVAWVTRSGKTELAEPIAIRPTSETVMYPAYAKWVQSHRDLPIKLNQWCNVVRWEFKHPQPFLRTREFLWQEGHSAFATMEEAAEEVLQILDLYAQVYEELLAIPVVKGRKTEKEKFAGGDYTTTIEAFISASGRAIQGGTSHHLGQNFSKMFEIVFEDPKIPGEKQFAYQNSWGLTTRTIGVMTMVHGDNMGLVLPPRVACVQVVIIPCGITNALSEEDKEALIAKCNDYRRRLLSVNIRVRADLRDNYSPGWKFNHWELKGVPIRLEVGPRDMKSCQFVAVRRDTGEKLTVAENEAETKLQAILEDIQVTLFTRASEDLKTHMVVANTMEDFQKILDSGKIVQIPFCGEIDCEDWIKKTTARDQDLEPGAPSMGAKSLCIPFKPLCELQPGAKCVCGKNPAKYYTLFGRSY
Structure (SMILES),IC50 [1] [µM],IC50 [2] [nM],further results
Cc1cc(Cl)cc2c(C(=O)OCc3ccc(Cl)c(Cl)c3)cc(-c3ccc(Br)cc3)nc12,> 100,20,
Cc1cc(Cl)cc2c(COS(N)(=O)=O)cc(-c3ccc(Br)cc3)nc12,,2400,
O=C(O)c1cc(-c2ccco2)nc2ccccc12,> 100,> 100000,
O=C(O)c1cc(-c2ccc(Cl)c(Cl)c2)nc2ccccc12,> 100,19000,
Cc1cc(Cl)cc2c(-c3nn[nH]n3)cc(-c3ccc(Br)cc3)nc12,> 100,30,
O=C(O)c1cc(-c2ccc(C(F)(F)F)cc2)nc2ccccc12,> 100,> 100000,
Cc1cc(Cl)cc2c(C(=O)OCc3ccc(-c4ccccc4)cc3)cc(-c3ccc(Br)cc3)nc12,> 100,8800,
COC(=O)C(Cc1ccccc1)NC(=O)c1cc(-c2ccc(Br)cc2)nc2c(C)cc(Cl)cc12 (configuration not stated),> 100,5700,
O=C(O)c1cc(-c2ccc(Cl)s2)nc2ccccc12,> 100,32000,
O=C(O)c1cc(-c2ccc3ccccc3c2)nc2ccccc12,> 100,3600,
O=C(O)c1cc(-c2ccccc2)nc2ccccc12 [CINCHOPHEN],> 100,> 100000,
Cc1cc(Cl)cc2c(C(=O)OCc3ccco3)cc(-c3ccc(Br)cc3)nc12,> 100,70,
O=C(O)c1cc(-c2ccncc2)nc2ccccc12,> 100,> 100000,

# More lines, main results first:
IC50 [1] [µM],IC50 [2] [nM],Structure (SMILES),further results
56,220,O=C(O)c1cc(-c2ccc(Br)cc2)nc2c(C(F)(F)F)cc(Br)cc12,
> 100,19,O=C(O)c1cc(-c2ccc(Br)cc2)nc2ccc(I)cc12,
> 100,500,O=C(O)c1cc(-c2ccc(Br)cc2)nc2ccccc12,
35,350,O=C(O)c1cc(-c2ccc(Br)cc2)nc2ccc(-c3ccc(O)cc3)cc12,
> 20,26,O=C(O)c1cc(-c2ccc(Br)cc2)nc2ccc(Cl)cc12,
> 20,25,Cc1cc(Cl)c2nc(-c3ccc(Br)cc3)cc(C(=O)O)c2c1,
> 100,140,O=C(O)c1cc(-c2ccc(Br)cc2)nc2cc(Cl)cc(Cl)c12,
80,1300,O=C(O)/C=C/c1ccc2nc(-c3ccc(Br)cc3)cc(C(=O)O)c2c1,
> 100,15000,O=C(O)c1cc(-c2ccc(Br)cc2)nc2ccc(S(=O)(=O)O)cc12,
> 100,1500,Cc1cc(Cl)cc2nc(-c3ccc(Br)cc3)cc(C(=O)O)c12,
60,120,Cc1c(F)ccc2c(C(=O)O)cc(-c3ccc(Br)cc3)nc12,
> 20,25,O=C(O)c1cc(-c2ccc(Br)cc2)nc2ccc(Br)cc12,
> 100,> 100000,COc1ccc(-c2cc(C(=O)O)c3ccccc3n2)cc1,
70,150,Cc1c(Br)ccc2c(C(=O)O)cc(-c3ccc(Br)cc3)nc12,MIC [3]: 25 µg/mL
> 20,5,Cc1cc(Cl)cc2c(C(=O)O)cc(-c3ccc(Br)cc3)nc12,MIC (Candida albicans): > 100 µg/mL; Ki [4]: 5.1 nM; Ki [5]: 15 nM
> 100,1500,O=C(O)c1cc(-c2ccc(Br)cc2)nc2c(CO)cc(Cl)cc12,
> 100,53,O=C(O)c1cc(-c2ccc(Br)cc2)nc2ccc(OC(F)(F)F)cc12,
95,3300,Nc1ccc2nc(-c3ccc(Br)cc3)cc(C(=O)O)c2c1,
> 100,25000,Cc1cc(C)c2nc(-c3ccc(Br)cc3)cc(C(=O)O)c2c1,
